Experimental data taken from patent publication US20060122198A1, “Antiepileptic agent” (Kyowa Hakko Kogyo Co., Ltd., priority 2003, published 2006).

Experiments:
[1] = test system: convulsion induced by administration of reserpine and electric stimulation; experiment: Antiepileptic action: tonic extended convulsion induced by reserpine and electric stimulation; assay type: in vivo; conditions: male ddY mice treated with reserpine 5 mg/kg i.p.; test compound 30 mg/kg orally; electric stimulation 1,000 V, 50 mA, 0.2 second after one hour; compared with reserpine + solvent group, p<0.01 (Aspine-Welch test)
Procedure: Convulsion induced by administration of reserpine and electric stimulation has been known as an effective model for epilepsy [European Journal of Pharmacology, 1994, volume 23, page 260]. Male mice (body weight: 15 to 17 g; Nippon SLC, Hamamatsu) of ddY strain of four weeks age were subjected to a preliminary breeding and 65 mice where body weight became 22.4 to 26.0 g were used for the experiment. Fifteen mice among the above were used as a non-treated group. Reserpine (Apoplon Injection 1 mg; Daiichi Seiyaku) diluted with distilled water for injection (Otsuka Seiyaku, Naruto) was intraperitoneally administered (treatment with reserpine) at the dose of 5 mg/kg to each of the remaining 50 mice and the experiment was carried out after 18 to 24 hours from the administration. Among the mice subjected to the treatment with reserpine, two groups each comprising ten mice were randomly selected and used as a group administered with a solvent and a group administered with the test compound. The test compound was used as a suspension of a 0.5% MC solution [distilled water for injection containing 0.5% methyl cellulose 400 cP (Wako Pure Chemicals)] and Compound (I) was orally administered at the dose of 30 mg/kg (10 mL/kg in terms of volume) to the mice treated with reserpine (a group administered with the test compound). […]

male mice of dd-strain = conditions: mouse, in vivo, po, 7 days
Procedure: A test compound was orally administered to male mice (body weight: 20±1 g) of dd-strain which comprises three mice per group. State of death after 7 days from the administration was observed and the minimum lethal dose (MLD) was determined.

SMILES | duration of convulsion (tonic extended convulsion) [1] | minimum lethal dose (MLD) (male mice of dd-strain)
CCCn1c(=O)c2c(nc(/C=C/c3ccc(OC)c(OC)c3)n2C)n(CCC)c1=O [Compound 3, (E)-8-(3,4-Dimethoxystyryl)-7-methyl-1,3-dipropylxanthine] | significant shortening action | –
COc1cc(/C=C/c2nc3c(c(=O)n(C)c(=O)n3C)n2C)cc(OC)c1OC [Compound 1, (E)-8-(3,4,5-Trimethoxystyryl)caffeine] | significant shortening action | > 1,000 mg/kg
